How the values were obtained:
Assay type in all cases: physicochemical
[1] = Solid state stability of recrystallized diHCl salt, 6 months at 40° C. and 75% relative humidity
Protocol: In another test, samples of the recrystallized diHCl salt of Example 7a were stored at 40° C. and 75% relative humidity.
(§1) Thermogravimetric analysis was conducted using a TA instruments model Q50. Samples were weighed in aluminum pans and heated from 50° C. to 300° C. at a rate of 10° C./min. Water content was estimated by measuring the total weight loss between 50° and 120° C. (a range in which no significant decomposition was observed).
(§2) Unless otherwise indicated, HPLC analysis was conducted using a Zorbax RP-bonus, C14, 25 cm×4.6 mm column, equilibrated at 35° C. The mobile phases used were: A: 0.1% TFA in 98:2 water:acetonitrile; and B: 0.1% TFA in 10:90 water:acetonitrile. Detection was by UV absorbance at 215 nm. A flow rate of 1.0 mL/min and a gradient of 0 to 60% B over 20 minutes was utilized. The diHCl salt of compound 1 gave a retention time of 11.7 min.
Chiral purity was determined using a Beckman P/ACE MDQ capillary electrophoresis system. The analysis was performed at pH 2.5 using heptakis-(2,3,-diacetyl-6-sulfato)-β-cyclodextrin (HDAS-β-CD) as the chiral selector and using a 50 μm×31.2 cm fused silica capillary. Detection was by UV absorbance at 200 nm. The four stereoisomers migrate in the following order: SS, RS, SR, RR, where compound 1 is designated as RR.

[2] = Solid state stability testing of crystalline diHCl salt, ground and unground, 30 days (DSC, TGA, XRPD, HPLC); settings: for crystal stability by DSC after exposure to elevated temperature and humidity: 40° C. and 75% relative humidity vs room temperature desiccator, ground and unground samples, dihydrochloride
Protocol: A single lot of the crystalline diHCl salt of compound 1]prepared as in Example 6, was used to prepare four samples of approximately 30 mg each. Two samples were ground to fine particles with a mortar and pestle. Two samples, one ground and one that had not been processed, were stored in a closed chamber at 40° C. and 75% relative humidity for 30 days and two samples, one ground and one that had not been processed, were stored at room temperature in a desiccators for the same period. Samples were withdrawn for analysis by DSC and TGA at 11 days and by XRPD and HPLC at 30 days.
X-ray powder diffraction patterns were obtained with a Shimadzu 6000 diffractometer using Cu Kα (40.0 kV, 35.0 mA) radiation. The analysis was performed with the goniometer running in continuous-scan mode of 2°/min with a step size of 0.02° over a range of 4 to 45°. Samples were prepared on glass specimen holders as a thin layer of powdered material.
Differential scanning calorimetry traces were obtained with a TA instruments model DSC2010. Samples were placed in sealed aluminum pans for analysis with an empty pan serving as the reference. Samples were equilibrated at 30° C. and heated at 5° C. per minute to a temperature of 300° C. The instrument was calibrated with an indium standard.
as §1, §2

[3] = Stability testing of aqueous nebulizer formulation (Formulation Example 1), HPLC, 1-4 months storage; settings: for Percent of active compound remaining: aqueous formulation 0.1 mg/g, pH 5.00
Protocol: (§3) An aqueous aerosol formulation for nebulizer administration having 0.1 mg of the active compound, compound 1, per gram of solution was prepared by the following procedure. Citric acid (755.8 mg) was added to a vessel charged with 0.9% sodium chloride solution (325.7 g). The active ingredient (42.3 mg) was added to the sodium chloride solution and the resulting mixture was stirred for 5 min and sonicated for 7 min to dissolve the active ingredient. The intial pH of the solution was determined to be 2.54. 1 N NaOH (7.1 g) was slowly added to the solution to obtain a final pH of 5.00. An additional amount of 0.9% sodium chloride solution (26.7 g) was added and the resulting solution was stirred to provide the aqueous formulation (360.3 g).
Aliquots of the formulation prepared as in Example 1 were stored at −20° C., 5° C., room temperature, and 40° C. Samples were removed for analysis by HPLC at 1 month intervals. HPLC analysis was conducted using a Zorbax RP-bonus, C14, 25 cm×4.6 mm column, equilibrated at 35° C. The mobile phases used were: A: 0.1% TFA in 98:2 water:acetonitrile; and B: 0.1% TFA in 10:90 water:acetonitrile. Detection was by UV absorbance at 215 nm. A flow rate of 1.0 mL/min and a gradient of 0 to 60% B over 20 minutes was utilized. The percent of active compound 1 remaining after the indicated period, normalized to the sample stored at −20° C. is given in Table 1 below.

[4] = Second stability test of aqueous nebulizer formulation, HPLC, 4-9 months storage; settings: normalized to −20° C. sample
Protocol: as §3
In a second stability test, aliquots were prepared and stored as above. Samples were removed for analysis by HPLC at various intervals. HPLC analysis was conducted using a MAC MOD Ace-5, C18, 25 cm×4.6 mm, 5 μm column, equilibrated at 30° C. The mobile phases were as described above. Detection was by UV absorbance at 244 nm. The initial condition was 6% phase B. A flow rate of 1.0 mL/min and a gradient of 6 to 30% B over 25 min, 30% to 60% B in 10 min and 60% to 100% B in 2 min were utilized. The retention time of compound 1 was approximately 20 min. The percent of active compound 1 remaining after the indicated period, normalized to the sample stored at −20° C. is given in Table 2 below.

[5] = as above; settings: nine months at 5° C.
[6] = 6 months at 40° C. and 75% relative humidity
[7] = 40° C. and 75% relative humidity, 30 days, ground and unground

Structure (SMILES): Cl.Cl.O=CNc1cc([C@@H](O)CNCCc2ccc(NC[C@H](O)c3ccccc3)cc2)ccc1O [crystalline diHCl salt of compound 1, N-{2-[4-((R)-2-hydroxy-2-phenylethylamino)phenyl]ethyl}-(R)-2-hydroxy-2-(3-formamido-4-hydroxyphenyl)ethylamine dihydrochloride]
- water content ([1]; 6 mo at 40° C. and 75% relative humidity): 0.37%
- appearance of the material after storage [1, 6]: no visible contamination
- chemical purity by HPLC analysis after storage [1, 6]: essentially unchanged
- chiral purity after storage [1, 6]: no change
- water content ([1]; initially): 0.12%
- crystal stability by DSC after exposure to elevated temperature and humidity [2]: no detectable effect on crystal stability
- crystal stability by DSC after exposure to elevated temperature and humidity ([2]; listed as crystalline diHCl salt): no detectable difference
- XRPD pattern after exposure to heat and humidity [2, 7]: not appreciably affected
- chemical degradation by HPLC [2, 7]: no appreciable chemical degradation
- water associated with crystals by TGA after exposure to high relative humidity ([2]; 40° C. and 75% relative humidity, ground and unground crystals, 11 days): no appreciable quantity of water becomes associated
- thermal stability ([2]; elevated temperatures): thermally stable
- hygroscopicity ([2]; exposed to the atmosphere for prolonged periods at high relative humidity): neither hygroscopic nor deliquescent
- decomposition on grinding into micronized particles ([2]; ground into micronized particles): without significant decomposition

Structure (SMILES): O=CNc1cc([C@@H](O)CNCCc2ccc(NC[C@H](O)c3ccccc3)cc2)ccc1O [compound 1, N-{2-[4-((R)-2-hydroxy-2-phenylethylamino)phenyl]ethyl}-(R)-2-hydroxy-2-(3-formamido-4-hydroxyphenyl)ethylamine]
- Percent of active compound remaining ([3]; 5° C., 1 month, normalized to sample stored at −20° C.): 101%
- Percent of active compound remaining ([3]; 5° C., 2 months, normalized to −20° C. sample): 100%
- Percent of active compound remaining ([3]; 5° C., 3 months, normalized to −20° C. sample): 100%
- Percent of active compound remaining ([3]; 5° C., 4 months, normalized to −20° C. sample): 99%
- Percent of active compound remaining ([3]; 40° C., 1 month, normalized to −20° C. sample): 94%
- Percent of active compound remaining ([3]; 40° C., 2 months, normalized to −20° C. sample): 87%
- Percent of active compound remaining ([3]; 40° C., 3 months, normalized to −20° C. sample): 72%
- Percent of active compound remaining ([3]; 40° C., 4 months, normalized to −20° C. sample): 74%
- chemical degradation of nebulizer solution upon storage (HPLC) ([3]; nebulizer solution 0.1 mg compound 1 per gram, four months at room temperature): no unacceptable chemical degradation
- Percent of active compound remaining ([3]; room temperature, 1 month, normalized to −20° C. sample): 99%
- Percent of active compound remaining ([3]; room temperature, 2 months, normalized to −20° C. sample): 99%
- Percent of active compound remaining ([3]; room temperature, 3 months, normalized to −20° C. sample): 97%
- Percent of active compound remaining ([3]; room temperature, 4 months, normalized to −20° C. sample): 96%
- Percent of active compound remaining ([4]; 5° C., 4 months): 99%
- Percent of active compound remaining ([4]; 5° C., 5 months): 99%
- Percent of active compound remaining ([4]; 5° C., 6 months): 100%
- Percent of active compound remaining ([4]; 5° C., 9 months): 99%
- Percent of active compound remaining ([4]; 40° C., 4 months): 74%
- Percent of active compound remaining ([4]; 40° C., 5 months): 69%
- Percent of active compound remaining ([4]; 40° C., 6 months): 63%
- Percent of active compound remaining ([4]; room temperature, 4 months): 97%
- Percent of active compound remaining ([4]; room temperature, 5 months): 95%
- Percent of active compound remaining ([4]; room temperature, 6 months): 94%
- Percent of active compound remaining ([4]; room temperature, 9 months): 90%
- free base composition of nebulizer solution upon storage [5]: essentially unchanged

— patent publication US20050075271A1, “Crystalline beta2 adrenergic receptor agonist” (priority 2002, published 2005)
